Ends that are not written are not given here.

The assay can be described thus: Ferric reducing ability, Prussian blue method. The following applies: 100 μg/mL, pH 6.8 phosphate buffer; determined at 700 nm; mean ± SD, triplicate; the values are: absorbance at 700 nm. On the procedure: Ferric reducing ability was defined as the ability of antioxidants to provide protons, which was administrated according to the Prussian blue method ([2]). A total 1 mL of BAG-2H peptide solution (100 μg/mL, dissolved in 0.2 mol/L of phosphate buffer, pH 6.8) was reacted with potassium ferricyanide (10 mg/mL, 4 mL) in the EDZF-C002 thermostatic vibrator (50°C, 220 rpm) for 30 min. The reaction solution was cooled to 25 ± 1°C and precipitated using an equal volume of 100 mg/mL trichloroacetic acid for 10 min. Then, the reaction solution was centrifuged at 3000 × g for 25 min, and 1 mL of the upper solution was pipetted and reacted with 1 mg/mL of FeCl3 (1.2 mL) to produce Prussian blue (potassium ferrocyanide). The concentration of potassium ferrocyanide produced was positively correlated with the ferric reducing ability of the sample ([37]), which was determined at 700 nm using a HD-UV90 ultraviolet–visible spectrophotometer (Holder Technology Co. LTD, Weifang, China).
As described by Wu et al. ([41]), the simulative gastric digestive fluid consisted of sodium chloride (0.18 mol/L), ultrapure water (180 mL), and 0.40 mg/mL of pepsin. […] The ACE inhibition capacity and antioxidant ability of the treated BAG-2H peptides were detected and compared to those of the undigested BAG-2H peptides.

Turning to “PVDFAGFY-ferrous chelate: ferrous chelate of PVDFAGFY prepared with ferrous chloride (also: ferrous chelate)”, the Ferric reducing ability, before gastrointestinal turned out to be 0.225 ± 0.012.

For the origin of these results see article PMC12005989, “Purification, identification, and in silico screening of a multifunctional octapeptide from semen armeniacae glutelin-2 hydrolysates: restraining mechanisms to Keap1 and ACE, stability, and ferrous-transport efficiency” (Frontiers in Nutrition, 2025).
